Data taken from patent US11584727B2, “2-thioxothiazolidin-4-one derivatives active as transthyretin ligands and uses thereof” (BSIM Therapeutics, S.A., priority 2014, dated 2023).

Legend:
[1] = HepG2 cell viability, resazurin reduction assay; assay type: cell-based; settings: human, HepG2 hepatoma cells, approximately 72 hours incubation, read-out: inhibitory dose (ID50), cell viability
Text: Cell viability of HepG2 hepatoma cells was quantified in order to assess the toxicity of the compounds at increasing concentrations. The used assay is described in detail in the “Experimental Evaluation of Cytotoxicity of Compounds using Cell-based Assays” section in “Materials and Methods”. This is a relevant assessment not just to discard potential concerns of liver damage (which is a problem reported for many drugs) but also because of the long-term nature of the treatments that patients suffering from TTR-mediated amyloidoses need to undertake.
Adherent human hepatoma cells HepG2 were cultured in DMEM (Dulbecco's Modified Eagle's Medium) with 10% fetal bovine serum (FBS), 100 U/mL penicillin, […] streptomycin, and 1 mM sodium pyruvate. The cells were grown in 75 cm^2 culture flasks at 37° C., in an atmosphere of 5% CO2, and subcultured twice a week using a trypsin-EDTA solution.
Upon 3 to 4 days of growth and reaching approximately 90% confluence, HepG2 cells were plated in 96-well microplates with cell density of 12×10^3 cells/well and in a volume of 100 μL per well.
The compounds are dissolved in DMSO and subsequently diluted in DMEM (in 9 intermediate […] concentrations). After adhesion of HepG2 cells to the microplates, […] 100 μL of each solution of intermediate compound concentration were added to each well (in quadruplicate). Positive controls were done with 10 wells containing only cells; solvent controls resulted from the analysis of the three highest DMSO concentrations tested and were carried out in triplicate.
After addition of the compounds to the cells, the microplates were incubated for approximately 72 hours at 37° C. in an atmosphere of 5% CO2 until the cell viability assay was performed.
The cell viability of HepG2 cells in the presence of test compounds was assessed by the resazurin reduction assay. Resazurin is a redox indicator that is converted into resorufin through reduction reactions of metabolically active cells. In the oxidized form it presents a purplish blue color, while the reduced form presents a purple-pink color.
A stock solution of 0.01% resazurin in PBS is diluted 1:10 in incomplete RPMI 1640 cell medium (without addition of antibiotics and FBS). After washing the cells with 200 μL PBS containing Ca^2+ and Mg^2+, 200 μL of resazurin 0.001% are added to the wells. Control runs with incomplete RPMI 1640 medium only and (without cells) are done in triplicate. […]
To quantify the reduction of resazurin to resorufin, microplate absorbance readings were taken at two wavelengths, 540 nm (reduced form) and 630 nm (oxidized form), in a Biotek spectrophotometer microplate reader. The percentage of viable cells at each compound concentration is determined using the formula: […]

human plasma TTR = target: T1, human plasma TTR (Homo sapiens, UniProt P02766); assay: Tetrameric TTR stability by isoelectric focusing (IEF) of plasma TTR, ex vivo; assay type: biochemical; settings: human plasma incubated with compound; control (vehicle) 0.717
T1 construct: from tissue; host or cells: human plasma
Procedure: To perform the assay, 30 μL of human plasma are incubated with 5 μL of a 10 mM solution of test compounds and control compounds overnight at 4° C. followed by a 1 hour incubation at room temperature. The preparations are subjected to native PAGE. The gel band containing TTR is then excised and applied to an IEF gel and IEF is carried out in semi-denaturing conditions. Proteins are stained with Coomassie Blue, the gels are scanned and subjected to densitometry. The results are expressed as the ratio of TTR tetramer over the total TTR species present, reflecting TTR stability.
After treatment with the test compounds, TTR was separated by PAGE and the isolated protein was analyzed by IEF.
To perform the assay, 30 μL of human plasma are incubated with 5 μL of a 10 mM solution of test compounds and control compounds overnight at 4° C. followed by a 1 hour incubation at RT. The preparations are subjected to native PAGE and the gel band containing TTR is excised and applied to an IEF gel. IEF is carried out in semi-denaturing conditions (4 M urea), containing 5% (v/v) ampholytes pH 4-6.5 (GE Healthcare), at 1200 V for 6 hours. Proteins are stained with Coomassie Blue, the gels are scanned and subjected to densitometry using the ImageQuant program. The results are expressed as the ratio of TTR tetramer over total TTR.

FAP patients = settings: 18-month phase-III clinical trial; cited from earlier work

tetramer/monomer ratio (IEF densitometry) (human plasma TTR)	SMILES	IC50 at 72 h [1] [µM]	FAP patients with improvement of symptoms (FAP patients)
0.838	COc1cc(/C=C2\SC(=S)N(CC(=O)O)C2=O)cc(Cl)c1O [AT50-A00 (Z), (Z)-3-hydroxycarbonylmethyl-5-(3′-chloro-4′-hydroxy-5′-methoxyphenylmethylidene)-2-thioxothiazolidin-4-one]	> 400	
	O=C(O)c1ccc2nc(-c3cc(Cl)cc(Cl)c3)oc2c1 [Tafamidis, reference compound]	~250	approximately 60%
